Laboratory results reported in patent publication US20260158139A1, “CARD9 VARIANT POLYPEPTIDE AND ANTIBODIES DIRECTED THERETO” (The Broad Institute, Inc., priority 2023, published 2026).
Blank lines part the entries; values can stand above or below the molecule they belong to.

Legend:
PKCδ = biological target: T1, PKCδ (Mus musculus, UniProt P28867); assay: CARD9 immunoprecipitation and western blot for pS104-CARD9 in BMDCs stimulated with HKCA; format: cell-based; settings: 10 uM, added 1 h before stimulation; BMDCs from WT mice stimulated with HKCA (MOI 1:10)
T1 construct: endogenous in cells; host or cells: mouse bone-marrow-derived dendritic cells (BMDCs) from WT mice
T1 sequence (P28867 whole entry): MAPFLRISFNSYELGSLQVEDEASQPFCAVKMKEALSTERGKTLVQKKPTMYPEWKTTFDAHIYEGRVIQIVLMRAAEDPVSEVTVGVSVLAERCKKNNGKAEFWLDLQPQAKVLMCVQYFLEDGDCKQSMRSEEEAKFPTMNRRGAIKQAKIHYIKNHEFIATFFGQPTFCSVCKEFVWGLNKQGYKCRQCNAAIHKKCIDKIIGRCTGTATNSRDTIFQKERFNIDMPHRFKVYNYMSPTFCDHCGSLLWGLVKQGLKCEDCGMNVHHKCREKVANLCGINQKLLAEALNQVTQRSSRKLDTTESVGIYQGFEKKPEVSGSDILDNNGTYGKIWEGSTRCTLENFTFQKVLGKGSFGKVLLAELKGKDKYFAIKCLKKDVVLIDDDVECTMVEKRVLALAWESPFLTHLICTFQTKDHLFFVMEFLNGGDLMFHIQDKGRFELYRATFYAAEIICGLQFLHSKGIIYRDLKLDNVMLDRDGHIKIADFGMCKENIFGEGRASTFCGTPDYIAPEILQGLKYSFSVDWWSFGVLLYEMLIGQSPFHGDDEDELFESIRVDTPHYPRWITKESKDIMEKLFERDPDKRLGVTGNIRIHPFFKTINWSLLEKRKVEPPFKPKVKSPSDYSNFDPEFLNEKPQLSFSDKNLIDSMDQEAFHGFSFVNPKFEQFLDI
Method: FIGS. 3A-3H provide graphs and pictures showing that CARD9 R101 functions as a signaling switch activated by S104 phosphorylation. FIG. 3A, BMDCs expressing Cas9 were transduced with guides for the corresponding genes on day 2 and selected with puromycin. On day 9 cells were stimulated with 100 ug/ml WGP O/N and IL-6 levels in supernatant were measured with ELISA. FIG. 3B, BMDCs expressing Cas9 were transduced with guides for the corresponding genes on day 2 and selected with puromycin. On day 9 cells were stimulated with HKCA (MOI 1:10), HKTR (1:10) or LPS (10 ng/ml) for 30 min. p65 nuclear translocation was measured using fluorescence imaging. The bars in the graph are shown in groups of 6 (from left to right, EGFP, EGFP, PAK2, PAK2, PKCd, PKCd) for each different condition (i.e., untreated, HKCA, HKTR, LPS). FIG. 3C, CARD9 FL, CARD9 R101C or CARD9 S104N were overexpressed in HEK 293T cells. […] Samples were analyzed by WB with the indicated antibodies. […] Samples were analyzed by WB with the indicated antibodies. FIG. 3F, Normalized fluorescence polarization representing filament formation between different CARD9 2-152 variants and Bcl10, average of quadruplicates. […] FIG. 3H, Expression of CARD9 in the lysates from panel g determined by western blot (WB) with the indicated antibodies. […]

[1] = tested on: phosphorylated S104 (pS104) of CARD9, peptides pS104, pS104/R101C, S104; assay: ELISA of hybridoma clones against CARD9 peptides (antibody specificity); format: binding; settings: pS104 in the context of either R101 or C101
Description: FIGS. 9A-9J provide schematics, pictures, a table, graphs showing that CARD9 activation through S104 phosphorylation is impaired by the R101C variant implicated in fungal disease. FIG. 9A, schematic representation of CRISPR KI into CARD9 allele to obtain endogenous CARD9 R101C mutation. Figure discloses SEQ ID NOS 69-71, respectively, in order of appearance. FIG. 9B, representative sequencing result highlighting the presence of mutated base pair (arrow). Figure discloses SEQ ID NOS 72-74, respectively, in order of appearance. FIG. 9C, WB from BMDCs isolated from WT or CARD9 R101C mutant mice. FIG. 9D, WB from splenic CD11c positive cells isolated from WT or CARD9 R101C mutant mice. FIG. 9E, table summarizing hybridoma screening results for binding affinity of different phospho-S104 specific antibodies. ELISA results are shown as values of absorbance at 490 nm, representing antibody reactivity towards either pS104, or pS104/R101C, or S104 peptides. Antibody used in the study is row 6 (i.e., 4F9.H5). FIG. 9F, IL-6 concentration in supernatants from BMDCs from WT, CARD9−/− or CARD9R101C mutant treated with indicated concentrations of WGP, HKCA, HKTR or LPS (10 ng/ml) for 24h. (n=3 mice per condition). […]

CARD9 S104 phosphorylation (PKCδ): inhibition of CARD9 S104 phosphorylation
Molecule: CN1CCN(c2nc(C3=C(c4c[nH]c5ccccc45)C(=O)NC3=O)c3ccccc3n2)CC1 [Sotrastaurin]

B1: phospho-specific CARD9 S104 antibody: mouse monoclonal IgG1 antibody to phosphorylated S104 of CARD9; clone 4F9.H5 used in the study; VH/VL in Table 1 (antibody, V domains shown)
VH: EVQLQQSGPELVKPGASMKMSCKASGYSFTGQTMHWVKQTHGKNLEWIGLINPYNGGTKYNQIFTGKATLTVDKSSSSAYMELLSLTSEDSAVYFCAIWDYVLDYWGQGTSVTVSSAKTTPPSVYPLAPGSAAQTNSMVTLGCLVK
VL: DVVMTQTPLSLPVSLGDQASISCRSSQSLLHSNGKTYLHWYLQKPGQSPKLLIYKVSNRFSGVPDRFSGSGSGTDFTLKISRVEAEDLGVYFCSQSTHIPPTFGGGTKLEIKRADAAPTVSIFPPSSEQLTSGGASVVCF
recognition of S104 phosphorylation (antibody specificity by ELISA against different peptides) [1]: recognizes S104 phosphorylation independently of R101
